In brackets after ≈: the same amount, converted by molar mass.
Columns and labels:
[1] = molecular target: T1, cytochrome P450 2C8-isoenzyme (Homo sapiens, UniProt P10632); assay: Inhibition of CYP-2C8 (amodiaquine deethylation, human liver microsomes); type: in vitro ADME; details: human liver microsomes 0.05 mg/mL, amodiaquine 1 μM, 37° C.
T1 construct: is assayed at 37° C. with human liver microsomes; from tissue; host or cells: human liver microsomes
T1 sequence (P10632 1-490): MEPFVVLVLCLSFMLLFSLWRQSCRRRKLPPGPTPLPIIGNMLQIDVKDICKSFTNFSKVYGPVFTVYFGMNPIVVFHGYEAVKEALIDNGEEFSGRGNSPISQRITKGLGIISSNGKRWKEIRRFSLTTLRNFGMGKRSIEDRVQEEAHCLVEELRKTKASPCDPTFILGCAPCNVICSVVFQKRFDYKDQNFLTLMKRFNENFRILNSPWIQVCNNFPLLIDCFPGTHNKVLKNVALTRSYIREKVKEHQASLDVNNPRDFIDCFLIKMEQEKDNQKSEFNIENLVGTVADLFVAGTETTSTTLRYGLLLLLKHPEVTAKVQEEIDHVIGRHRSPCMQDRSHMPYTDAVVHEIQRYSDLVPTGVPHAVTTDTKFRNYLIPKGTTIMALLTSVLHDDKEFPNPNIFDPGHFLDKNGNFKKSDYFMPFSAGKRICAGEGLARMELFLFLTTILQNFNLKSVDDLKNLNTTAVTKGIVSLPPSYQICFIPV
Protocol: All assays are carried out on a robotic system in 96 well plates. The final incubation volume contains TRIS buffer (0.1 M), MgCl2 (5 mM), human liver microsomes (0.05 mg/mL), amodiaquine (1 μM) and the test compound at five different concentrations or no compound (high control) in duplicate (e.g. highest concentration 10-50 μM with subsequent serial 1:4 dilutions). Following a short preincubation period, reactions are started with the cofactor (NADPH, 1 mM) and stopped by cooling the incubation down to 8° C. and subsequently by addition of one volume of acetonitrile. An internal standard solution—the stable isotope d5-desethylamodiaquine—is added after quenching of incubations. Peak area analyte (=metabolite formed) and internal standard is determined by LC-MS/MS. The resulting peak area ratio analyte to internal standard in these incubations is compared to a control activity containing no test compound. Within each of the assay runs, the IC50 of a positive control inhibitor (Montelukast) is determined. Experimental IC50 values are calculated by least square regression according to the following equation: % control activity=(100% control activity/(1+(I/IC50)S))−B with I=inhibitor concentration; S=slope factor; B=background activity (lower plateau of the inhibition curve) If the inhibition of the reaction is already >50% at the lowest concentration of the test compound, the IC50 is assigned “<lowest concentration tested” (usually <0.4 μM). If the inhibition of the reaction is still <50% at the highest concentration of the test compound, the IC50 is assigned “>highest concentration tested” (usually >50 μM).

[2] = molecular target: T2, cytochrome P450 2C9-isoenzyme (Homo sapiens, UniProt P11712); assay: Inhibition of CYP-2C9 (diclofenac hydroxylation, human liver microsomes); type: in vitro ADME; details: human liver microsomes 0.1 mg/mL, diclofenac 10 μM, 37° C.
T2 construct: is assayed at 37° C. with human liver microsomes; from tissue; host or cells: human liver microsomes
Protocol: All assays are carried out on a robotic system in 96 well plates. The final incubation volume contains TRIS buffer (0.1 M), MgCl2 (5 mM), human liver microsomes (0.1 mg/mL), diclofenac (10 μM) and the test compound at five different concentrations or no compound (high control) in duplicate (e.g. highest concentration 10-50 μM with subsequent serial 1:4 dilutions). Following a short preincubation period, reactions are started with the cofactor (NADPH, 1 mM) and stopped by cooling the incubation down to 8° C. and subsequently by addition of one volume of acetonitrile. An internal standard solution—the stable isotope 13C6-hydroxydiclofenac—is added after quenching of incubations. Peak area analyte (=metabolite formed) and internal standard is determined by LC-MS/MS. The resulting peak area ratio analyte to internal standard in these incubations is compared to a control activity containing no test compound. Within each of the assay runs, the IC50 of a positive control inhibitor (sulfaphenazole) is determined. Experimental IC50 values are calculated by least square regression according to the following equation: % control activity=(100% control activity/(1+(I/IC50)S)))−B with I=inhibitor concentration S=slope factor B=background activity (lower plateau of the inhibition curve) If the inhibition of the reaction is already >50% at the lowest concentration of the test compound, the IC50 is assigned “<lowest concentration tested” (usually <0.4 μM). If the inhibition of the reaction is still <50% at the highest concentration of the test compound, the IC50 is assigned “>highest concentration tested” (usually >50 μM).

human GPR40 receptor = human GPR40 receptor (Homo sapiens, UniProt O14842); assay: IP1 accumulation measurements using the IPOne assay system; type: cell-based; details: 1321N1 cells stably expressing human GPR40; 1 h stimulation at 37° C.
Protocol: IP1 accumulation measurements using the IPOne assay system—1321N1 cells stably expressing human GPR40 receptor (Euroscreen, Belgium) are seeded 24 h before the assay in white 384-well plates in culture medium containing 10% FCS, 1% Na-Pyruvate and 400 μg/mL G418. IP1 is assayed according to the manufacturer's description (Cisbio Bioassays, France). In brief, the assay is started by substitution of the culture medium by stimulation buffer (Hepes 10 mM, CaCl2 1 mM, MgCl2 0.5 mM, KCl 4.2 mM, NaCl 146 mM, glucose 5.5 mM and LiCl 50 mM, pH 7.4). Cells are stimulated for 1 h at 37° C., 5% CO2 by addition of the compounds that are diluted in stimulation buffer containing LiCl. Assays are stopped by adding HTRF-conjugates (IP1-d2 and Anti-IP1 cryptate Tb) and lysis buffer, provided by the manufacturer. After an incubation time of 1 h at room temperature plates are measured using an EnVision™, Perkin Elmer. The obtained fluorescence ratios at 665/615 […] are then used to calculate the pEC50 values using Assay Explorer 3.3 Software (Accelrys, Inc.) by interpolation using an IP1 reference curve and subsequent sigmoidal curve fitting allowing for a variable hill slope.

[3] = Aqueous solubility from DMSO stock, LC-UV; type: physicochemical; details: aqueous buffer, kinetic from dmso stock; buffer pH 2.2, 24 h shaking, 2.5% DMSO
Protocol: The aqueous solubility of the compounds of the invention is determined by comparing the amount dissolved in buffer to the amount in an acetonitrile/water (1/1) solution. Starting from a 10 mM DMSO stock solution aliquots are diluted with acetonitrile/water (1/1) or buffer, respectively. After 24 h of shaking, the solutions are filtrated and analyzed by LC-UV. The amount dissolved in buffer is compared to the amount in the acetonitrile solution. Solubility is usually being measured from 0.001 to 0.125 mg/mL at a DMSO concentration of 2.5%. If more than 90% of the compound is dissolved in buffer, the value is marked with “>”.

T2 sequence (P11712 whole entry): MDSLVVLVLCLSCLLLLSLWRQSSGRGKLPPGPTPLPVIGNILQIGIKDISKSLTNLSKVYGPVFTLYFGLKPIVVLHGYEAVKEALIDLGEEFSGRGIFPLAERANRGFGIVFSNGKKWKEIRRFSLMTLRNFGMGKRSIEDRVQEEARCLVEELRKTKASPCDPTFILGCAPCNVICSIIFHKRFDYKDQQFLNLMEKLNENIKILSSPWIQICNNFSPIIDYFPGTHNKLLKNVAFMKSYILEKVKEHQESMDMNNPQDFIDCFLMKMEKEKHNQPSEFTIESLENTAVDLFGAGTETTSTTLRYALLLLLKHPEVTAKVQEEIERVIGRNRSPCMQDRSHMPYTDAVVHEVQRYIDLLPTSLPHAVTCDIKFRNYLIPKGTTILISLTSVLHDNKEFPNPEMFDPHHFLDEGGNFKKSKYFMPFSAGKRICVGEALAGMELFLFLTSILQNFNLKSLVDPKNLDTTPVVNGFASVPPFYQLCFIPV
human GPR40 receptor, sequence (O14842 whole entry): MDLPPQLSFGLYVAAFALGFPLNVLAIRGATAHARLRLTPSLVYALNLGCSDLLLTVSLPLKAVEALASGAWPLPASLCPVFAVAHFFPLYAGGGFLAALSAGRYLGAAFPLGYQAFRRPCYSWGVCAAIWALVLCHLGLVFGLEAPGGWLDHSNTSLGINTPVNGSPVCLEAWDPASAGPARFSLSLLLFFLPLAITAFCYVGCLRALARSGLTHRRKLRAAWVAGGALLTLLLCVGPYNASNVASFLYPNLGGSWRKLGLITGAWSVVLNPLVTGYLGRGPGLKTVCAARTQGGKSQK

Row | SMILES | IC50 [1] | IC50 [2] | EC50 (human GPR40 receptor) | solubility at 24 h [3]
1 | Cc1cc(OCCC(C)(C)O)cc(C)c1-c1cccc2c1CC[C@H]2Oc1ccc2c(c1)OC[C@H]2CC(=O)O [7 (WO 2013/144098), reference compound] | 5 µM | > 10 µM |  | 
2 | Cc1cc(OCCC(C)(C)O)cc(C)c1-c1ccc(F)c2c1CC[C@H]2Nc1cnc2c(c1)OCC2CC(=O)O (stereo partly drawn) [Example 1, 2-(6-{[(1R)-7-Fluoro-4-[4-(3-hydroxy-3-methylbutoxy)-2,6-dimethylphenyl]-2,3-dihydro-1H-inden-1-yl]amino}-2H,3H-furo[3,2-b]pyridin-3-yl)acetic acid] | 17 µM | > 50 µM | 0.057 µM | 
3 | Cc1cc(OCC(C)(C)O)cc(C)c1-c1cccc2c1CC[C@H]2Nc1cnc2c(c1)OCC2CC(=O)O (stereo partly drawn) [Example 118, 2-(6-{[(1R)-4-[4-(2-Hydroxy-2-methylpropoxy)-2,6-dimethylphenyl]-2,3-dihydro-1H-inden-1-yl]amino}-2H,3H-furo[3,2-b]pyridin-3-yl)acetic acid] | > 50 µM | > 50 µM | 0.158 µM | 66 µg/mL (≈ 131 µM)
4 | Cc1cc(OC2CCOCC2)cc(C)c1-c1cccc2c1CC[C@H]2Nc1cnc2c(c1)OCC2CC(=O)O (stereo partly drawn) [Example 119, 2-(6-{[(1R)-4-[2,6-Dimethyl-4-(oxan-4-yloxy)phenyl]-2,3-dihydro-1H-inden-1-yl]amino}-2H,3H-furo[3,2-b]pyridin-3-yl)acetic acid] | 41 µM | > 50 µM | 0.09 µM | 16 µg/mL (≈ 31.1 µM)
5 | Cc1cc(-c2ccn(C)c(=O)c2)cc(C)c1-c1cccc2c1CC[C@H]2Nc1cnc2c(c1)OCC2CC(=O)O (stereo partly drawn) [Example 120, 2-(6-{[(1R)-4-[2,6-Dimethyl-4-(1-methyl-2-oxo-1,2-dihydropyridin-4-yl)phenyl]-2,3-dihydro-1H-inden-1-yl]amino}-2H,3H-furo[3,2-b]pyridin-3-yl)acetic acid] | 12 µM | > 50 µM | 0.052 µM | 29 µg/mL (≈ 55.6 µM)
6 | Cc1cc(-c2ccc(=O)n(C)c2)cc(C)c1-c1cccc2c1CC[C@H]2Nc1cnc2c(c1)OCC2CC(=O)O (stereo partly drawn) [Example 121, 2-(6-{[(1R)-4-[2,6-Dimethyl-4-(1-methyl-6-oxo-1,6-dihydropyridin-3-yl)phenyl]-2,3-dihydro-1H-inden-1-yl]amino}-2H,3H-furo[3,2-b]pyridin-3-yl)acetic acid] | 29 µM | > 50 µM | 0.061 µM | 51 µg/mL (≈ 97.8 µM)
7 | Cc1cc(-c2nnn(CC(C)(C)O)n2)cc(C)c1-c1cccc2c1CC[C@H]2Nc1cnc2c(c1)OCC2CC(=O)O (stereo partly drawn) [Example 122, 2-(6-{[(1R)-4-{4-[2-(2-Hydroxy-2-methylpropyl)-2H-1,2,3,4-tetrazol-5-yl]-2,6-dimethylphenyl}-2,3-dihydro-1H-inden-1-yl]amino}-2H,3H-furo[3,2-b]pyridin-3-yl)acetic acid] | 32 µM | > 50 µM | 0.024 µM | 45 µg/mL (≈ 81.1 µM)
8 | Cc1cc(OCC(C)(C)C#N)cc(C)c1-c1cccc2c1CC[C@H]2Nc1cnc2c(c1)OCC2CC(=O)O (stereo partly drawn) [Example 123, 2-(6-{[(1R)-4-[4-(2-Cyano-2,2-dimethylethoxy)-2,6-dimethylphenyl]-2,3-dihydro-1H-inden-1-yl]amino}-2H,3H-furo[3,2-b]pyridin-3-yl)acetic acid] | 9 µM | 28 µM | 0.153 µM | < 1 µg/mL
9 | CCc1cccc(CC)c1-c1cccc2c1CC[C@H]2Nc1cnc2c(c1)OCC2CC(=O)O (stereo partly drawn) [Example 124, 2-(6-{[(1R)-4-(2,6-Diethylphenyl)-2,3-dihydro-1H-inden-1-yl]amino}-2H,3H-furo[3,2-b]pyridin-3-yl)acetic acid] | 9 µM | 49 µM | 0.075 µM | 6 µg/mL (≈ 13.6 µM)
10 | O=C(O)CC1COc2cc(N[C@@H]3CCc4c(-c5ccccc5C(F)(F)F)cccc43)cnc21 (stereo partly drawn) [Example 125, 2-(6-{[(1R)-4-[2-(Trifluoromethyl)phenyl]-2,3-dihydro-1H-inden-1-yl]amino}-2H,3H-furo[3,2-b]pyridin-3-yl)acetic acid] | 21 µM | 47 µM | 0.693 µM | 22 µg/mL (≈ 48.4 µM)
11 | Cc1cc(C(=O)N(C)C)cc(C)c1-c1cccc2c1CC[C@H]2Nc1cnc2c(c1)OCC2CC(=O)O (stereo partly drawn) [Example 126, 2-(6-{[(1R)-4-[4-(Dimethylcarbamoyl)-2,6-dimethylphenyl]-2,3-dihydro-1H-inden-1-yl]amino}-2H,3H-furo[3,2-b]pyridin-3-yl)acetic acid] | 37 µM | > 50 µM | 1.87 µM | 79 µg/mL (≈ 163 µM)
12 | COc1cc(F)c(-c2cccc3c2CC[C@H]3Nc2cnc3c(c2)OCC3CC(=O)O)c(F)c1 (stereo partly drawn) [Example 127, 2-(6-{[(1R)-4-(2,6-Difluoro-4-methoxyphenyl)-2,3-dihydro-1H-inden-1-yl]amino}-2H,3H-furo[3,2-b]pyridin-3-yl)acetic acid] | 27 µM | > 50 µM | 1.24 µM | 30 µg/mL (≈ 66.3 µM)
13 | Cc1ccc(Cl)c(-c2cccc3c2CC[C@H]3Nc2cnc3c(c2)OCC3CC(=O)O)c1Cl (stereo partly drawn) [Example 128, 2-(6-{[(1R)-4-(2,6-dichloro-3-methylphenyl)-2,3-dihydro-1H-inden-1-yl]amino}-2H,3H-furo[3,2-b]pyridin-3-yl)acetic acid] | 14 µM | > 50 µM | 0.126 µM | 1 µg/mL (≈ 2.13 µM)
14 | N#Cc1cccc(C#N)c1-c1cccc2c1CC[C@H]2Nc1cnc2c(c1)OCC2CC(=O)O (stereo partly drawn) [Example 130, 2-(6-{[(1R)-4-(2,6-Dicyanophenyl)-2,3-dihydro-1H-inden-1-yl]amino}-2H,3H-furo[3,2-b]pyridin-3-yl)acetic acid] | > 50 µM | > 50 µM | > 10 µM | 84 µg/mL (≈ 192 µM)

From patent US20180354962A1, “[{[2,3-Dihydro-1H-inden-1-yl]amino}-2H,3H-furo[3,2-b]pyridin-3-yl]acetic acids, pharmaceutical compositions and uses thereof” (Boehringer Ingelheim International GmbH, priority 2015, published 2018)
